Measured values taken from patent publication US6638960B2, “Halogenobenzimidazoles and their use as microbicides” (Bayer Aktiengesellschaft, priority 1995, dated 2003).

What was measured:
[1] = test system: Plasmopara viticola; assay: Plasmopara test (vines)/protective; type: in vivo; details: 50 ppm active compound; vines sprayed protectively; evaluated 6 days after inoculation; 100% = no disease
[2] = test system: Phytophthora infestans; assay: whole plant or invertebrate; type: in vivo; details: in Solanum lycopersicum, 72 h, read-out: Efficacy in % based on the untreated control at an active compound concentration of 50 ppm

Compound	pest or weed control at 50 ppm [2] [%]	other results
FC1(F)Oc2cc3nc[nH]c3cc2OC1(F)F		melting point: 70 to 74 °C
Cc1noc(C)c1S(=O)(=O)n1c(Cl)nc2cc3c(cc21)OC(F)(F)O3 [drawing 118]		Efficacy in % based on the untreated control at an active compound concentration of 50 ppm [1]: 100%
FC1(F)Oc2cc3nc(Br)[nH]c3cc2OC1(F)F		melting point: 170 to 174 °C
Cc1noc(C)c1S(=O)(=O)n1c(Br)nc2cc3c(cc21)OC(F)(F)O3 [drawing 100]	99	
Cc1onc(N)c1S(=O)(=O)n1c(Br)nc2cc3c(cc21)OC(F)(F)O3	95	
Cc1noc(C)c1S(=O)(=O)n1c(Br)nc2cc(Cl)c(Cl)cc21	95	
Cc1noc(C)c1S(=O)(=O)n1c(Br)nc2cc3c(cc21)OC(F)(F)O3 [drawing 114]		Efficacy in % based on the untreated control at an active compound concentration of 50 ppm [1]: 99%
CN(C)S(=O)(=O)n1c(Br)nc2cc3c(cc21)OC(F)(F)C(F)(F)O3	86	
Cc1noc(C)c1S(=O)(=O)n1c(Br)nc2cc3c(cc21)OC(F)(F)O3		melting point: 130 to 134 °C
Cc1noc(C)c1S(=O)(=O)n1c(Cl)nc2ccc(Sc3ccccc3)cc21 [drawing 110]	99	
COc1ccc2c(c1)nc(Cl)n2S(=O)(=O)c1c(C)noc1C	96	
Clc1nc2cc3c(cc2[nH]1)OCCO3		melting point: 150 °C
Cc1noc(C)c1S(=O)(=O)n1c(Br)nc2cc3c(cc21)OC(F)(F)C(F)(F)O3 [drawing 115]		Efficacy in % based on the untreated control at an active compound concentration of 50 ppm [1]: 93%
Cc1onc(N)c1S(=O)(=O)n1c(Cl)nc2cc3c(cc21)OC(F)(F)C(F)(F)O3	97	
Cc1noc(C)c1S(=O)(=O)n1c(Cl)nc2ccc(Sc3ccccc3)cc21 [drawing 119]		Efficacy in % based on the untreated control at an active compound concentration of 50 ppm [1]: 100%
Cc1noc(C)c1S(=O)(=O)n1c(Cl)nc2ccccc21	99	
Cc1noc(C)c1S(=O)(=O)n1c(Br)nc2cc3c(cc21)OC(F)(F)C(F)(F)O3 [drawing 101]	97	
Cc1noc(C)c1S(=O)(=O)n1c(Cl)nc2cc3c(cc21)OC(F)(F)O3 [drawing 109]	99	
